Measured values published in patent publication US20240182449A1, “CRYSTALLINE FORMS OF AN MK2 INHIBITOR” (XinThera, Inc., priority 2022, published 2024).

Columns and labels:
[1] = Solubility estimation at RT by visual observation in selected solvent systems; conditions: RT
Protocol: The solubility of compound 1 Form I and Form X was estimated at RT by visual observation in selected solvent systems. Approximately 5 mg solids were weighed into 8 mL glass vial, and then solvent was added stepwise until solids were dissolved completely or a total of solvent volume reached 5 mL.

[2] = Slurry conversion of Form I and Form X in solvents (XRPD result); assay type: physicochemical; conditions: for XRPD Result-Day 3: slurry at 80° C.
Protocol: Appropriate amount of Form I was added into different solvents to make suspensions, which were kept stirring at RT and 50° C. for 3 and 7 days, and at 80° C. for 3 days. Solid samples were collected by centrifugation and analyzed by XRPD. Forms I-IV, VII and VIII were obtained by slurry experiments of Form I.
Appropriate amount of Form X was added into different solvents to make suspensions, which were kept stirring at RT and 50° C. for 3 and 7 days, and at 80° C. for 3 days. Solid samples were collected by centrifugation and analyzed by XRPD.

[3] = as above; assay type: physicochemical; conditions: slurry at RT, Toluene
[4] = Slurry competition experiments (thermodynamic stability relationship); assay type: physicochemical; conditions: RT
Protocol: Slurry competition experiments were carried out between anhydrous and hydrates, to establish stability relationships. Appropriate amount of Form I was suspended in different solvents for pre-saturation at RT. Then the filtrate was added into equal amount of different forms, and the mixture was kept stirring at RT for certain time before XRPD tests.

[5] = Salt screening with strong acids (chemical stability, HPLC purity); assay type: physicochemical
Protocol: A salt screening was conducted with 6 pharmaceutically acceptable strong acids. About 25 mg of compound 1 was weighed into a 1.5-mL glass vial, then 1.1 eq. of selected acid was weighted into the above glass vial. Liquid strong acid was pre-diluted in corresponding solvent. After addition of 0.5 mL solvent, the mixture was stirred at RT for 24 h. 0.5 mL more solvent was added to dilute several viscous systems at 4 h (highlighted as * in the summary table). If no solid was obtained, anti-solvent of heptane was added into the filtrates gradually at RT to induce precipitation (highlighted as ** in the summary table). The suspensions were filtered and the solids were vacuum dried at 40° C. for 4 h.
HPLC results (Table 33) confirmed significant purity decrease by>15%.

[6] = slurry at 50° C., 2-MeTHF/CYH (1/4)
[7] = slurry at 50° C., ACN/water (1/9)
[8] = slurry at 50° C., Acetone/water (1/4)
[9] = slurry at 50° C., IPAc/heptane (1/4)
[10] = slurry at 50° C., IPE/water (200/1)
[11] = slurry at 50° C., Toluene/heptane (1/4)
[12] = slurry at RT, Acetone/water (1/4)
[13] = slurry at RT, IPAc/heptane (1/4)
[14] = slurry at RT, IPE/water (200/1)
[15] = slurry at RT, Toluene/heptane (1/4)

## [2H]C([2H])(Oc1cc(C)n(-c2c(C)cnc(-n3ccc(C(C)(C)O)n3)c2F)c(=O)c1Cl)c1ncc(F)cc1F [Form I]
[1]; CYH
  Estimated Solubility: <1000 µg/mL
[1]; Heptane
  Estimated Solubility: <1000 µg/mL
[1]; IPE
  Estimated Solubility: <1000 µg/mL
[1]; Water
  Estimated Solubility: <1000 µg/mL
[1]; visual observation, most tested solvents
  Estimated Solubility: > 100000 µg/mL
[2]; [6]
  XRPD Result Day 3: Form VII
  XRPD Result Day 7: Form III
[2]; [7]
  XRPD Result Day 3: Form IV
  XRPD Result Day 7: Form IV
[2]; [8]
  XRPD Result Day 3: Form IV
  XRPD Result Day 7: Form IV
[2]; slurry at 50° C., CYH
  XRPD Result Day 3: Form IV
  XRPD Result Day 7: Form IV
[2]; slurry at 50° C., Heptane
  XRPD Result Day 3: Form IV
  XRPD Result Day 7: Form IV
[2]; [9]
  XRPD Result Day 3: Form IV + VIII
  XRPD Result Day 7: Form IV + VIII
[2]; slurry at 50° C., IPE
  XRPD Result Day 3: Form IV
  XRPD Result Day 7: Form IV + VIII
[2]; [10]
  XRPD Result Day 3: Form IV
  XRPD Result Day 7: Form IV
[2]; slurry at 50° C., MTBE
  XRPD Result Day 3: Form III
  XRPD Result Day 7: Form III
[2]; slurry at 50° C., MeCYH
  XRPD Result Day 3: Form IV
  XRPD Result Day 7: Form IV
[2]; slurry at 50° C., Toluene
  XRPD Result Day 3: Clear
  XRPD Result Day 7: Clear
[2]; [11]
  XRPD Result Day 3: Form IV
  XRPD Result Day 7: Form IV
[2]; slurry at 50° C., Water
  XRPD Result Day 3: Form IV
  XRPD Result Day 7: Form IV
[2]; CYH
  XRPD Result-Day 3: Form VIII
[2]; Heptane
  XRPD Result-Day 3: Form VIII
[2]; MeCYH
  XRPD Result-Day 3: Form VIII
[2]; Water
  XRPD Result-Day 3: Form IV
[2]; slurry at RT, ACN/water (1/9)
  XRPD Result Day 3: Form IV
  XRPD Result Day 7: Form IV
[2]; [12]
  XRPD Result Day 3: Form VII
  XRPD Result Day 7: Form VII
[2]; slurry at RT, CYH
  XRPD Result Day 3: Form I
  XRPD Result Day 7: Form I
[2]; slurry at RT, Heptane
  XRPD Result Day 3: Form I
  XRPD Result Day 7: Form I
[2]; [13]
  XRPD Result Day 3: Form IV
  XRPD Result Day 7: Form IV
[2]; [14]
  XRPD Result Day 3: Form IV
  XRPD Result Day 7: Form IV
[2]; slurry at RT, MTBE
  XRPD Result Day 3: Form III
  XRPD Result Day 7: Form III
[2]; slurry at RT, MeCYH
  XRPD Result Day 3: Form I
  XRPD Result Day 7: Form I
[2]; slurry at RT, Toluene
  XRPD Result Day 3: Gel-like on the wall
  XRPD Result Day 7: Gel-like on the wall
[2]; [15]
  XRPD Result Day 3: Form IV
  XRPD Result Day 7: Form IV
[2]; slurry at RT, Water
  XRPD Result Day 3: Form I
  XRPD Result Day 7: Form I
[3]
  XRPD Result (6 d): Form IV (6 d)

## [2H]C([2H])(Oc1cc(C)n(-c2c(C)cnc(-n3ccc(C(C)(C)O)n3)c2F)c(=O)c1Cl)c1ncc(F)cc1F [Form IV + IX]
[4]; Water, 3 d
  Output of competitive slurry (XRPD): Form X + IV (trace)
[4]; Water/MeOH (9/1), 3 d
  Output of competitive slurry (XRPD): Form X + IV
[4]; Water/MeOH (17/3), 3 d
  Output of competitive slurry (XRPD): Form X
[4]; Water/MeOH (19/1), 3 d
  Output of competitive slurry (XRPD): Form X

## [2H]C([2H])(Oc1cc(C)n(-c2c(C)cnc(-n3ccc(C(C)(C)O)n3)c2F)c(=O)c1Cl)c1ncc(F)cc1F [Form I, starting material]
[5]; salt screening samples, HPLC, chemical stability under strong acid
  Purity (area %): 99.29 area %

## [2H]C([2H])(Oc1cc(C)n(-c2c(C)cnc(-n3ccc(C(C)(C)O)n3)c2F)c(=O)c1Cl)c1ncc(F)cc1F [Form VIII]
[4]; Water, 1 d
  Output of competitive slurry (XRPD): Form I

## [2H]C([2H])(Oc1cc(C)n(-c2c(C)cnc(-n3ccc(C(C)(C)O)n3)c2F)c(=O)c1Cl)c1ncc(F)cc1F (atropisomer, axis not shown; (M)) [compound 1, (M)-3-chloro-4-((3,5-difluoropyridin-2-yl)methoxy-d2)-3′-fluoro-2′-(3-(2-hydroxypropan-2-yl)-1H-pyrazol-1-yl)-5′,6-dimethyl-2H-[1,4′-bipyridin]-2-one]
[5]; salt screening with 6 strong acids
  chemical stability under strong acidic conditions: chemically unstable

## [2H]C([2H])(Oc1cc(C)n(-c2c(C)cnc(-n3ccc(C(C)(C)O)n3)c2F)c(=O)c1Cl)c1ncc(F)cc1F [Form I + IV]
[4]; Water, 3 d
  Output of competitive slurry (XRPD): Form IV
[4]; Water/MeOH (9/1), 3 d
  Output of competitive slurry (XRPD): Form IV + IX
[4]; Water/MeOH (19/1), 3 d
  Output of competitive slurry (XRPD): Form IV + IX

## [2H]C([2H])(Oc1cc(C)n(-c2c(C)cnc(-n3ccc(C(C)(C)O)n3)c2F)c(=O)c1Cl)c1ncc(F)cc1F [Form IV + X]
[4]; Water, 2 d
  Output of competitive slurry (XRPD): Form X
